Measurements published in patent US20080021069A1, “Receptor Function Regulating Agent” (TAKEDA PHARMACEUTICAL COMPANY LIMITED, priority 2004, published 2008).
Where a name gives a salt, the structure may show the parent alone.

Assays:
human GPR40 = biological target: T1, human GPR40 (Homo sapiens, UniProt O14842); test: GPR40 antagonist activity with changes in intracellular calcium concentration as index (NFAT-luciferase reporter, CHO(dhfr-)/GPR40-NFAT-Luc cells); assay type: cell-based; details: CHO cell line expressing human GPR40, NFAT-Luc reporter; GPR40 agonist 3-(4-((6-benzyloxy-2',6'-dimethyl-biphenyl-3-yl)methoxy)phenyl)propanoic acid 40 nM; 4 hr culture; 0.1% fatty acid-free BSA
T1 construct: expressed in transfected cells; host or cells: CHO(dhfr-) cells: line CHO-hGPR40 No. 104 of WO2004/041266, with a stably expressed NFAT-TA-Luc reporter (CHO(dhfr-)/GPR40-NFAT-Luc)
Description: Evaluation of GPR40 antagonist activity with changes in intracellular calcium concentration as index
An assay system of GPR40 antagonist was established as follows. In this assay system, as the GPR40 agonist, 3-(4-((6-benzyloxy-2′,6′-dimethyl-biphenyl-3-yl)methoxy)phenyl)propanoic acid (compound described in Example 340 of WO2004/041266) was used.
First, NFAT-TA was cut out from pNFAT-TA-Luc (manufactured by BD Bioscience Clontech) with HindIII and NheI, the recovered fragment was inserted into pGL3 basic neo digested with HindIII and NheI to give plasmid:pGL3 basic neo NFAT-TA-Luc.
This plasmid was used for “the CHO cell line (CHO-hGPR40 No. 104), which was made to express human GPR40” described in WO2004/041266, and a cell line CHO(dhfr-)/GPR40-NFAT-Luc, wherein a reporter gene was stably expressed by a method known per se, was prepared.
This cell line was diluted with a medium (nucleic acid-free MEM (Minimum Essential Medium)—α medium added with dialyzed FBS (Fetal Bovine Serum) to a final concentration of 10%) in such a manner that 2×10^4 cells/100 μl would be contained, dispensed to a white walled 96 well plate (manufactured by Coster) by 100 μl per well, and cultured overnight in a CO2 incubator. Then the medium was removed by suction from the 96 well plate, and a 10 mM test compound-dimethyl sulfoxide (manufactured by Wako Pure Chemical Industries, Ltd.) solution diluted with a medium (nucleic acid-free MEM—α medium added with bovine serum albumin (BSA) free of fatty acid to a final concentration of 0.1%) to each concentration was added by 50 μl per well. Further, 3-(4-((6-benzyloxy-2′,6′-dimethyl-biphenyl-3-yl)methoxy)phenyl)propanoic acid diluted with a medium (nucleic acid-free MEM-α (medium added with BSA free of fatty acid to a final concentration of 0.1%) to a final concentration of 40 nM was added to the 96 well plate by 50 μl per well.
After culture in a CO2 incubator for 4 hr, the culture medium was removed from the 96 well plate. Then, PicaGene (manufactured by TOYO INK MFG. CO., LTD.) was added to the 96 well plate, and the luciferase activity was determined using PerkinElmer ARVO (trade name, manufactured by PerkinElmer), based on which changes in the intracellular calcium concentration were evaluated. After assay of luciferase activity, nonlinear regression analysis was performed using PRISM 3 (trade name, manufactured by GraphPad) and IC50 value was calculated with changes in the intracellular calcium concentration as an index.
In the same manner as in Experimental Example 1, the IC50 value of the compound of the present invention was calculated.

T1 sequence (O14842 whole entry): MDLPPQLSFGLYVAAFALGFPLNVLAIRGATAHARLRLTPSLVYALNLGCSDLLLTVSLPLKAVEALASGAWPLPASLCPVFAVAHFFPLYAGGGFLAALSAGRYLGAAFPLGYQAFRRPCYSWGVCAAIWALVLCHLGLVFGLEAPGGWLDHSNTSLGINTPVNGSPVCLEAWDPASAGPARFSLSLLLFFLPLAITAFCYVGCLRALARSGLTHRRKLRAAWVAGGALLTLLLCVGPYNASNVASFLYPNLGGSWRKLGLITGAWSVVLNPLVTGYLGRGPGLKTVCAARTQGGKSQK

| SMILES | melting point [°C] | IC50 (human GPR40) [nM] |
| --- | --- | --- |
| CCCCOc1ccc(-n2c(NCc3ccc(C(C)(C)C)cc3)nc3ccc(Cl)cc32)cc1 [Example 75, 1-(4-Butoxyphenyl)-N-(4-tert-butylbenzyl)-6-chloro-1H-benzimidazol-2-amine] |  | < 100 |
| CCCCOc1ccc(-n2c(NCc3ccc(Br)cc3)nc3cc(Cl)c(Cl)cc32)cc1 [Example 100, 1-(4-Butoxyphenyl)-5,6-dichloro-N-(4-bromobenzyl)-1H-benzimidazol-2-amine] | 161 to 162 | < 100 |
| FC(F)C(F)(F)Oc1ccc(-n2c(SCc3ccc(Cl)cc3)nc3ccc(Cl)cc32)cc1 [Example 135, 6-Chloro-2-[(4-chlorobenzyl)thio]-1-[4-(1,1,2,2-tetrafluoroethoxy)phenyl]-1H-benzimidazole] | 139 to 140 | < 100 |
| CC(C)Oc1ccc(-n2c(SCc3ccc(Cl)cc3)nc3cc(Cl)ccc32)cc1 [Example 46, 5-Chloro-2-[(4-chlorobenzyl)thio]-1-(4-isopropoxyphenyl)-1H-benzimidazole] |  | < 100 |
| CCCCOc1ccc(-n2c(NCc3ccc(C(C)(C)C)cc3)nc3cc(Cl)c(Cl)cc32)cc1 [Example 99, 1-(4-butoxyphenyl)-N-(4-tert-butylbenzyl)-5,6-dichloro-1H-benzimidazol-2-amine] |  | < 100 |
| FC(F)(F)COc1ccc(-n2c(SCc3ccc(Cl)cc3)nc3cc(Cl)ccc32)cc1 [Example 67, 5-chloro-2-[(4-chlorobenzyl)thio]-1-[4-(2,2,2-trifluoroethoxy)phenyl]-1H-benzimidazole] |  | < 100 |
| OCc1ccc(-n2c(SCc3ccc(Cl)cc3)nc3ccc(Cl)cc32)cc1 [Example 115, (4-{6-Chloro-2-[(4-chlorobenzyl)thio]-1H-benzimidazol-1-yl}phenyl)methanol] | 121 to 122 |  |
| CCOc1ccc(-n2c(SCc3ccc(-c4ccccc4)cc3)nc3ccc(Cl)cc32)cc1 [Example 34, 2-[(Biphenyl-4-ylmethyl)thio]-6-chloro-1-(4-ethoxyphenyl)-1H-benzimidazole] | 116 to 117 |  |
| CCOC(=O)c1ccc(-n2c(SCc3ccc(Cl)cc3)nc3ccc(Cl)cc32)cc1 [Example 19, Ethyl 4-{6-chloro-2-[(4-chlorobenzyl)thio]-1H-benzimidazol-1-yl}benzoate] | 100 to 101 |  |
| CC(=O)OCCOc1ccc(-n2c(SCc3ccc(Cl)cc3)nc3ccc(Cl)cc32)cc1 [Example 15, 2-(4-{6-Chloro-2-[(4-chlorobenzyl)thio]-1H-benzimidazol-1-yl}phenoxy)ethyl acetate] | 126 to 127 |  |
| Cl.FC(F)(F)COc1ccc(-n2c(SCc3ccc(Cl)cc3)nc3ccc(Cl)cc32)cc1 | 106 to 107 |  |
| CN(C)C(=O)c1ccc(-n2c(SCc3ccc(Cl)cc3)nc3ccc(Cl)cc32)cc1 [Example 27, 4-{6-Chloro-2-[(4-chlorobenzyl)thio]-1H-benzimidazol-1-yl}-N,N-dimethylbenzamide] | 139 to 140 |  |
| CCOCOc1ccc(-n2c(SCc3ccc(Br)cc3)nc3ccc(Cl)cc32)cc1 [Example 32, 2-[(4-Bromobenzyl)thio]-6-chloro-1-[4-(ethoxymethoxy)phenyl]-1H-benzimidazole] | 145 to 146 |  |

Results, then the compound that gave them:

| melting point [°C] | IC50 (human GPR40) [nM] | SMILES |
| --- | --- | --- |
| 149 to 150 | < 100 | CC(C)Oc1ccc(-n2c(SCc3ccc(Cl)cc3)nc3cc(Cl)c(Cl)cc32)cc1 [Example 110, 5,6-Dichloro-2-[(4-chlorobenzyl)thio]-1-(4-isopropoxyphenyl)-1H-benzimidazole] |
| 118 to 120 | < 100 | FC(F)(F)COc1ccc(-n2c(NCc3ccc(Br)cc3)nc3cc(Cl)c(Cl)cc32)cc1 [Example 103, N-(4-Bromobenzyl)-5,6-dichloro-1-[4-(2,2,2-trifluoroethoxy)phenyl]-1H-benzimidazol-2-amine] |
| 104 to 105 | < 100 | CCOc1ccc(-n2c(SCc3ccc(C(F)(F)F)nc3)nc3ccc(Cl)cc32)cc1 [Example 36, 6-chloro-1-(4-ethoxyphenyl)-2-({[6-(trifluoromethyl)pyridin-3-yl]methyl}thio)-1H-benzimidazole] |
| 92 to 93 | < 100 | CCOc1ccc(-n2c(NCc3ccc(Br)cc3)nc3cc(Cl)c(Cl)cc32)cc1 [Example 95, N-(4-Bromobenzyl)-5,6-dichloro-1-(4-ethoxyphenyl)-1H-benzimidazol-2-amine] |
| 135 to 136 | < 100 | CCOc1ccc(-n2c(NCc3ccc(Cl)cc3)nc3ccc(Cl)cc32)cc1 [Example 47, 6-Chloro-N-(4-chlorobenzyl)-1-(4-ethoxyphenyl)-1H-benzimidazol-2-amine] |
| 130 to 133 | < 100 | CC(C)(C)c1ccc(CNc2nc3ccc(Cl)cc3n2-c2ccc(OC(F)(F)C(F)F)cc2)cc1.Cl [Example 106, N-(4-tert-Butylbenzyl)-6-chloro-1-[4-(1,1,2,2-tetrafluoroethoxy)phenyl]-1H-benzimidazol-2-amine hydrochloride] |
| 186 to 187 | < 100 | CCOc1ccc(-n2c(NCc3ccc(C(C)(C)C)cc3)nc3cc(Cl)c(Cl)cc32)cc1 [Example 93, N-(4-tert-Butylbenzyl)-5,6-dichloro-1-(4-ethoxyphenyl)-1H-benzimidazol-2-amine] |
| 98 to 100 | < 100 | CCCOc1ccc(-n2c(NCc3ccc(C(C)(C)C)cc3)nc3ccc(Cl)cc32)cc1 [Example 73, N-(4-tert-Butylbenzyl)-6-chloro-1-(4-propoxyphenyl)-1H-benzimidazol-2-amine] |
| 181 to 182 | < 100 | CC(C)(C)c1ccc(CNc2nc3ccc(Cl)cc3n2-c2ccc(OC(F)(F)F)cc2)cc1 [Example 80, N-(4-tert-Butylbenzyl)-6-chloro-1-[4-(trifluoromethoxy)phenyl]-1H-benzimidazol-2-amine] |
| 141 to 142 | < 100 | COc1ccc(-n2c(SCc3ccc(Cl)cc3)nc3cc(Cl)c(Cl)cc32)cc1 [Example 108, 5,6-Dichloro-2-[(4-chlorobenzyl)thio]-1-(4-methoxyphenyl)-1H-benzimidazole] |
| 211 to 212 | < 100 | CCOc1ccc(-n2c(NCc3ccc(C(C)(C)C)cc3)nc3cc(Cl)ccc32)cc1 [Example 81, N-(4-tert-Butylbenzyl)-5-chloro-1-(4-ethoxyphenyl)-1H-benzimidazol-2-amine] |
|  | < 100 | CCOc1ccc(-n2c(NCc3ccc(Br)cc3)nc3ccc(Cl)cc32)cc1 [Example 50, N-(4-Bromobenzyl)-6-chloro-1-(4-ethoxyphenyl)-1H-benzimidazol-2-amine] |
|  | < 100 | CCOc1ccc(-n2c(SCc3ccc(Cl)cc3)nc3cc(Cl)ccc32)cc1 [Example 65, 5-Chloro-2-[(4-chlorobenzyl)thio]-1-(4-ethoxyphenyl)-1H-benzimidazole hydrochloride] |
|  | < 100 | CCOc1ccc(-n2c(NC(C)c3ccc(Br)cc3)nc3ccc(Cl)cc32)cc1 (stereo not shown) [Example 71, N-[1-(4-Bromophenyl)ethyl]-6-chloro-1-(4-ethoxyphenyl)-1H-benzimidazol-2-amine] |
|  | < 100 | COc1ccc(-n2c(NCc3ccc(C(C)(C)C)cc3)nc3cc(Cl)c(Cl)cc32)cc1 [Example 92, N-(4-tert-Butylbenzyl)-5,6-dichloro-1-(4-methoxyphenyl)-1H-benzimidazol-2-amine] |
| 146 to 147 |  | FC(F)(F)COc1ccc(-n2c(NCc3ccc(Br)cc3)nc3cc(Cl)ccc32)cc1 [Example 90, N-(4-Bromobenzyl)-5-chloro-1-[4-(2,2,2-trifluoroethoxy)phenyl]-1H-benzimidazol-2-amine] |
|  | < 100 | CCOc1ccc(-n2c(NCc3ccc(C(C)(C)C)cc3)nc3ccc(Cl)cc32)cc1 [Example 51, N-(4-tert-Butylbenzyl)-6-chloro-1-(4-ethoxyphenyl)-1H-benzimidazol-2-amine] |
